The target in one assay is T1, Bovine liver catalase (Bos taurus, UniProt P00432).
T1 construct: Bovine liver catalase was also purchased from Sigma-Aldrich; purchased Sigma-Aldrich; host or cells: bovine liver
T1 sequence (P00432 2-527 limits assumed): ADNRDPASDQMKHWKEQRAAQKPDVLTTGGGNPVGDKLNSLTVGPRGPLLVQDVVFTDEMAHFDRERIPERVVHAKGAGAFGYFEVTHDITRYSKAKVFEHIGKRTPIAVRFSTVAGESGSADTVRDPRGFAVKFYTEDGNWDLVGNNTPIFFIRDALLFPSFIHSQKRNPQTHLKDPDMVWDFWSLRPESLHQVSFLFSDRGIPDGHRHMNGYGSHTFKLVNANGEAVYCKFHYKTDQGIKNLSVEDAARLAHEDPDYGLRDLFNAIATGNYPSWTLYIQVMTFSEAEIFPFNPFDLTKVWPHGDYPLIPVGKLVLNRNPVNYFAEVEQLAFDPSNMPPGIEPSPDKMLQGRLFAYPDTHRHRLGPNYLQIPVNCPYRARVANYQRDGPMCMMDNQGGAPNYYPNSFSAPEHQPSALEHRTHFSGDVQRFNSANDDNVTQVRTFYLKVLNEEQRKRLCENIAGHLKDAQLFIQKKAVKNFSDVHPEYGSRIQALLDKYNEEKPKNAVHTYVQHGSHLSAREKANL
Description: Time course of catalase inactivation by HCys (activity test). It is filed as biochemical. Conditions: CAT + 2 mM HCys, 1 mM DTPA, pH 7.4, with the additive named (DMPO 100 mM, dimedone 4 mM, SOD 40 U); n=2±s.d. As for the experimental part: CAT activity was measured on an Uvikon 941 spectrophotometer equipped with a temperature controlled water bath (±1 °C) by following the disappearance of H2O2 at 240 nm over 30–120 s at 25 °C. Catalase activity was calculated based on the rate of decomposition of hydrogen peroxide, which is proportional to the reduction of the absorbance at 240 nm. Experiments were carried out in a 3 ml quartz cuvette containing 11.7 mM H2O2 in 50 mM KPi, pH 7.4±1 mM DTPA and the reaction was initiated by adding 0.3–0.6 pmoles of CAT. The effect of biological thiols on the activity of CAT under physiological conditions was determined from a solution of CAT (30–60 nM) preincubated at 25 °C for at least 120 min as a function thiol concentration (0–40 mM for HCys and Cys, 0–100 mM for GSH) in 50 mM KPi, pH 7.4, 1 mM DTPA. Control experiments (biological thiols alone) were also performed in parallel. In each case, 10 μl of the reaction mixture (biological thiols±CAT) was added to the cuvette containing the H2O2 solution to initiate the reaction. Similarly, the effect of biological thiols on the activity of CAT under pathological conditions was determined from a solution of CAT (30–60 nM) containing a 2.124±0.386 molar excess of iron that was preincubated with various concentrations of thiols (0–1 mM) for at least 120 min at 25 °C in 50 mM KP at pH 7.4. The relative half inhibitory concentration (IC50) values were obtained by plotting the relative activity of CAT (A, in per cent) as a function of the concentration of thiol-compounds (RSH) and by fitting the data with the following four parameter logistic equation: A=Amin+(Amax−Amin)/(1+([RSH]/IC50)^n), where Amax is the maximal activity of CAT (constrained at 100%), Amin is the minimum activity achieved at saturating concentration of RSH and n is the Hillslope that characterizes the slope of the curve at its midpoint. The inactivation rate (kinact, min^−1) was extracted from the time course of the inactivation of CAT bioactivity using a fixed concentration of HCys. Accordingly, a solution of CAT (3.5–5 μM) was incubated with 2 mM L-HCys in 50 mM KPi, pH 7.4, 1 mM DTPA. Aliquots (10 μl) were taken at intervals (0–480 min), diluted 1:50 in 50 mM KPi, pH 7.4, 1 mM DTPA and assayed for CAT activity as described above. […] The effect of NaSH on the consumption of H2O2 in cell lysates was determined from a solution of cell lysates (0.5–3 mg ml^−1) incubated on ice with various concentrations of NaSH (0–200 μM). […]

The next assay relates to Hek 293T cells. Description: H2O2 consumption in cell lysates as a function of NaSH concentration. It is filed as biochemical. As to conditions: read-out: relative IC50 (rate of H2O2 consumption). As for the experimental part:
(§1) CAT activity was measured on an Uvikon 941 spectrophotometer equipped with a temperature controlled water bath (±1 °C) by following the disappearance of H2O2 at 240 nm over 30–120 s at 25 °C. Catalase activity was calculated based on the rate of decomposition of hydrogen peroxide, which is proportional to the reduction of the absorbance at 240 nm. Experiments were carried out in a 3 ml quartz cuvette containing 11.7 mM H2O2 in 50 mM KPi, pH 7.4±1 mM DTPA and the reaction was initiated by adding 0.3–0.6 pmoles of CAT. The effect of biological thiols on the activity of CAT under physiological conditions was determined from a solution of CAT (30–60 nM) preincubated at 25 °C for at least 120 min as a function thiol concentration (0–40 mM for HCys and Cys, 0–100 mM for GSH) in 50 mM KPi, pH 7.4, 1 mM DTPA. Control experiments (biological thiols alone) were also performed in parallel. […] Similarly, the effect of biological thiols on the activity of CAT under pathological conditions was determined from a solution of CAT (30–60 nM) containing a 2.124±0.386 molar excess of iron that was preincubated with various concentrations of thiols (0–1 mM) for at least 120 min at 25 °C in 50 mM KP at pH 7.4. […] The effect of NaSH on the consumption of H2O2 in cell lysates was determined from a solution of cell lysates (0.5–3 mg ml^−1) incubated on ice with various concentrations of NaSH (0–200 μM). […]

Assay [1] deals with crypt and surface epithelial cells. Described as above. It is filed as biochemical, mice. Conditions: read-out: relative IC50 (rate of H2O2 consumption). As for the experimental part:
as §1

Where two headings read alike, the source gives them in different places.

Regarding `NC(CCS)C(=O)O` (centres unmarked) [HCys, homocysteine], the kinact (usually the maximal first-order rate at which the target is inactivated) at Bovine liver catalase was 0.000483 s⁻¹.

With `[Na+].[SH-]` [NaSH], the IC50 (as a rule, the concentration needed to halve the response being measured) is 4 ± 1.5 µM in the assay with Hek 293T cells (Hek 293T cells transfected with Htt), 6.5 ± 3.6 µM in the assay on Hek 293T cells (Hek 293T cells transfected with pcDNA), 21.6 ± 6.2 µM in assay [1] (cells isolated from DSS-treated mice) and 25.2 ± 6.7 µM in assay [1] (cells isolated from untreated mice).

The values above are taken from paper PMC5116089, “Sulfheme formation during homocysteine S-oxygenation by catalase in cancers and neurodegenerative diseases” (Nature Communications, 2016).
